{
  "source": "patent US4698350A",
  "about": "“1-ethyl-6-fluoro-1,4-dihydro- 7-(2,6-dimethyl-4-pyridinyl)-4-oxo-3-quinolinecarboxylic acid and antibacterial use thereof” (Sterling Drug Inc., priority 1984, dated 1987)",
  "key": {"[1]": {"tested_on": "S. pneumoniae", "test": "In vitro antibacterial activity", "format": "cell-based", "settings": "one strain of S. pneumoniae", "method": "(§1) Win 52,522 and Win 35,439 were solubilized in 0.1 ml of 0.5 N NaOH/mg of compound and diluted in sterile distilled water to 160 mcg/ml. Vancomycin and methicillin were solubilized in sterile distilled water to 1250 mcg/ml of base compound. The stock solutions were sterilized by filtration through membrane filters with a 0.45 μm pore size.\n(§2) The bacterial cultures listed in Table I (hereinbelow) were grown overnight at 37° C. in MHB for all cultures except the Streptococcus strains. These were grown in BHI+10% NHS. The overnight broth cultures were adjusted to an optical density of 0.10 (650 nm, B L Spectronic 20) in sterile distilled water and subsequently diluted to 6.7×10^6 cells/ml in MHB or BHI+1% NHS.\n(§3) Serial two-fold dilutions of the compound solutions were prepared in MHB (or in BHI+1% NHS for tests with Streptococci) and dispensed into 96-well microtiter trays in a volume of 0.1 ml/well using a Sandy Springs (Bellco Glass Co.) dispenser. The trays were then inoculated with 0.0015 ml of a suspension containing 6.7×10^6 cells/ml of the appropriate inoculum using a MIC-2000 inoculator (Dynatech Corp.) resulting in a final inoculum of approximately 1×10^4 cells/well or 1×10^5 cells/ml. The trays were incubated at 37° C. for 18-20 hours and the minimal inhibitory concentration (MIC), defined as the lowest concentration of compound to inhibit visible bacterial growth, was recorded.\n(§4) After the MIC values were recorded, the contents in the microtiter trays were thoroughly mixed on a Bellco Mini-orbital Shaker (Bellco Glass Co.) for 3 min. at a setting of 8. A portion (0.0015 ml) from each well was then transferred via an MIC-2000 inoculator to plates containing MHA or BHI agar+10% NHS. The plates were incubated at 37° C. for 18-20 hrs. The minimal bactericidal concentration (MBC), defined as the lowest concentration of compound that prevented the formation of a recognizable colony on the agar surface, was recorded."}, "[2]": {"tested_on": "S. faecalis", "test": "In vitro antibacterial activity", "format": "cell-based", "settings": "all 4 strains of S. faecalis", "method": "as §1, §2, §3, §4"}, "[3]": {"tested_on": "Gram-positive cocci", "test": "In vitro antibacterial activity", "format": "cell-based, S. aureus, S. epidermidis and Streptococcus species", "method": "as §1, §2\nas §3, with “recorded. […]” for “recorded.”"}, "[4]": {"tested_on": "all 39 bacterial test strains", "test": "In vitro antibacterial activity", "format": "cell-based", "method": "as §1, §2, §3, §4"}, "[5]": {"tested_on": "S. pyogenes and S. pneumoniae", "test": "In vitro antibacterial activity", "format": "cell-based", "method": "as §1, §2, §3, §4"}, "[6]": {"tested_on": "penicillin-sensitive and methicillin-resistant Staphylococcus aureus strains", "test": "Mouse protection tests, S. aureus infections", "format": "in vivo, ICR mice; Staphylococcus aureus", "settings": "subcutaneous and oral routes, mice", "method": "ICR mice, female, 18-20 grams each.\nSolutions of Win 52,522 and Win 35,439 were prepared by dissolving the appropriate weight of drug in 0.3 to 0.4 ml of 1 N NaOH and then bringing the solutions to the desired volume with distilled water. Methicillin and vancomycin were dissolved directly in distilled water.\nMice were inoculated intraperitoneally with 0.5 ml of the bacterial test inoculum.\nDeaths were recorded daily for seven days for all tests. Fifty percent protective dose values (PD50's) were calculated using probit analysis [SAS Users Guide: Statistics, 1982 Edition, SAS Institute, Inc., Cary, N.C.]."}, "[7]": {"tested_on": "all thirteen of the target anaerobic microorganisms", "test": "Antimicrobial activity against anaerobic microorganisms", "format": "cell-based", "method": "1. Maintenance. Prior to use, all strains were maintained in the lyophilized state. During the study, cultures were examined on blood agar basal medium supplemented with 5.0% (v/v) defibrinated rabbit blood. Culture transfer was accomplished weekly with all cultures being incubated in an anaerobic atmosphere (GasPak jar; BBL).\n2. Agar Medium. The basal test medium consisted of trypticase soy agar (40 g), yeast extract (1 g), glucose (2 g) and 960 ml of distilled water pH 7.2. [Mashimo et al., J. Clin. Micro. 17, 187-191 (1983)]. Subsequent to sterilization and cooling to 50° C., the medium was supplemented with 4% (v/v) defibrinated rabbit blood and 0.5 μg/ml menadione (Vitamin K3) The agent under evaluation was also added at this time to the concentration desired. Subsequent to pouring of the plates, they were permitted to dry at 4° C. for 24 hr.\n3. Determination of Agent MIC. The minimal inhibitory concentration (MIC) of the various test agents was determined using an agar dilution technique. Agents and appropriate reference compounds were added to achieve a series of concentrations ranging between 32 μg/ml and 0.007 μg/ml. The inocula were prepared from 96-hr. cultures grown on the maintenance medium. Subsequent to a purity evaluation, colonies were removed and suspended in trypticase soy broth supplemented with 5 μg/ml menadione and 2% lysed rabbit blood filtrate to achieve an OD650 of 0.1 (this corresponded to approximately 10^8 cells/ml). Cultures were inoculated aerobically on the modified trypticase soy blood agar plates by use of a Steer's replicator (which delivers about 10^5 cells per spot). The plates were allowed to dry for a time not exceeding 30 min. and then incubated at 37° C. under an atmosphere of […], 10% H2 and 5% CO2 maintained in an anaerobic chamber (Coy Manufacturing Co.) for 48 hr. The MIC was defined as the lowest concentration completely inhibiting growth.\nTetracycline stock solutions (1 mg/ml) were made subsequent to dissolution in water. Stock solutions (1 mg/ml) of the remaining test compounds were made subsequent to dissolution in 1/10 N NaOH."}, "[8]": {"tested_on": "S. pyogenes", "test": "In vitro antibacterial activity", "format": "cell-based", "settings": "3 strains of S. pyogenes", "method": "as §1, §2, §3, §4"}},
  "note": "Entries after “also recorded” stand apart in the source; their conditions may differ. Structures can show the parent of a compound that is named as a salt.",
  "data": [
    {"molecule": "CN[C@H](CC(C)C)C(=O)N[C@H]1C(=O)N[C@@H](CC(N)=O)C(=O)N[C@H]2C(=O)N[C@H]3C(=O)N[C@H](C(=O)N[C@H](C(=O)O)c4cc(O)cc(O)c4-c4cc3ccc4O)[C@H](O)c3ccc(c(Cl)c3)Oc3cc2cc(c3O[C@@H]2O[C@H](CO)[C@@H](O)[C@H](O)[C@H]2O[C@H]2C[C@](C)(N)[C@H](O)[C@H](C)O2)Oc2ccc(cc2Cl)[C@H]1O", "note": "[Vancomycin]", "values": [
      {"measurement": "bactericidal / bacteriostatic", "setting": "[1]", "value": "bacteriostatic"},
      {"measurement": "bactericidal / bacteriostatic", "setting": "[2]", "value": "bacteriostatic"}
    ]},
    {"molecule": "COc1cccc(OC)c1C(=O)N[C@@H]1C(=O)N2[C@@H]1SC(C)(C)[C@@H]2C(=O)O", "note": "[Methicillin, 6-(2,6-dimethoxybenzamido)penicillanic acid sodium salt]", "values": [
      {"measurement": "bactericidal / bacteriostatic", "setting": "[3]; Gram-positive cocci", "value": "bactericidal"}
    ]},
    {"molecule": "CCn1cc(C(=O)O)c(=O)c2cc(F)c(-c3cc(C)nc(C)c3)cc21", "note": "[Win 52,522, 1-ethyl-6-fluoro-1,4-dihydro-7-(2,6-dimethyl-4-pyridinyl)-4-oxo-3-quinolinecarboxylic acid]", "values": [
      {"measurement": "MBC/MIC", "setting": "[4]; all Gram-positive and Gram-negative test strains", "value": "≤ 4"},
      {"measurement": "bactericidal / bacteriostatic", "setting": "[4]; all test strains", "value": "bactericidal"},
      {"measurement": "times less potent than methicillin", "setting": "[5]", "value": "2-8 times"},
      {"measurement": "in vivo efficacy (in words)", "setting": "[6]", "value": "more efficacious than Win 35,439; also recorded: very potent antibacterial agent"},
      {"measurement": "times more potent in vitro than Win 35,439", "setting": "[3]; several Gram-positive cocci", "value": "2-8 times"},
      {"measurement": "antimicrobial activity (in words)", "setting": "[7]", "value": "high activity against all thirteen of the target anaerobic microorganisms; also recorded: extremely active against a number of anaerobic microorganisms; also recorded: markedly superior to both Win 35,213 and 35,439; also recorded: broad spectrum of antimicrobial activity, comparing favorably with the currant antibiotic of choice, tetracycline"}
    ]},
    {"molecule": "CCn1cc(C(=O)O)c(=O)c2ccc(-c3cc(C)nc(C)c3)cc21", "note": "[Win 35,439, 1-ethyl-1,4-dihydro-7-(2,6-dimethyl-4-pyridinyl)-4-oxo-3-quinolinecarboxylic acid]", "values": [
      {"measurement": "bactericidal / bacteriostatic", "setting": "[8]", "value": "bacteriostatic"}
    ]}
  ]
}
